Assay results as given in patent US20260206761A1, “HETEROARYL-TRIAZOLE COMPOUNDS AS PESTICIDES” (Bayer Aktiengesellschaft, priority 2019, published 2026).

How the values were obtained:
Assay type in all cases: in vivo
[1] = system: larvae of the banded cucumber beetle (Diabrotica balteata); test: Diabrotica balteata spray test; conditions: 168 h, after 7 days, read-out: activity (efficacy: seedlings grown); for pest or weed control at 500 g/ha: application rate 500 g/ha (=160 pg/well); for pest or weed control at 100 g/ha: application rate 100 g/ha (=32 pg/well)
Outline: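 Wheat seedlings, germinated 1 day on agar (5 seeds/well), sprayed with active compound in acetone/DMF diluted in water containing 1000 ppm emulsifier, then infested with 10-20 D. balteata larvae. Efficacy (%) scored after 7 days: 100% = seedlings grown as untreated uninfested control, 0% = no seedlings grown.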

[2] = system: adult unfed cat fleas (Ctenocephalides felis); test: Ctenocephalides felis oral test; conditions: 48 h, read-out: activity (mortality)
Outline: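 About 20 adult unfed fleas fed through parafilm on cattle blood containing compound (DMSO stock diluted in blood), blood held at 37 °C and fleas at room temperature. Mortality (%) scored after 2 days.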

[3] = system: Aedes aegypti strain MONHEIM; test: Aedes aegypti test (AEDSAE surface treatment & contact assay); conditions: 24 hours after contact, read-out: efficacy (mortality); for mortality at 20 mg/m2: surface concentration 20 mg/m^2, exposure 30 minutes; for mortality at 4 mg/m2: surface concentration 4 mg/m^2, exposure 30 minutes
Outline: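 Compound in acetone (2 mg/ml) with 2000 ppm RME pipetted onto glazed tile and dried; adult Aedes aegypti MONHEIM exposed 30 min. Percent mortality scored 24 h after contact.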

[4] = system: Rhipicephalus microplus larvae (strain Parkhurst, resistant against synthetic pyrethroids); test: Rhipicephalus (Boophilus) microplus in-vitro contact test, larval cattle tick; conditions: after 48 hours, read-out: activity (efficacy: larvae dead or moribund); for pest or weed control at 100 g/ha: application rate 1 pg/cm^2 (=100 g/ha); for pest or weed control at 500 g/ha: application rate 5 pg/cm^2 (=500 g/ha)
Outline: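 Acetone solutions coated onto inner walls of glass tubes by rotation (900 ppm giving 5 μg/cm^2); after evaporation, 20-50 larvae added per tube and held at 27° C., 85% relative humidity. Efficacy read after 48 h from negative geotactic behaviour; 100% = all larvae dead or moribund.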

[5] = system: brown planthopper (Nilaparvata lugens); test: Nilaparvata lugens spray test; conditions: 96 h, after 4 days; for mortality at 500 g/ha: application rate 500 g/ha; for mortality at 100 g/ha: application rate 100 g/ha
Description: Nilaparvata lugens—Spray Test
Solvent: 78.0 parts by weight of acetone • • 1.5 parts by weight of dimethylformamide
Emulsifier: alkylarylpolyglycol ether
To produce a suitable preparation of active compound, 1 part by weight of active compound is mixed with the stated amount of solvents and is diluted with water, containing an emulsifier concentration of 1000 ppm, to the desired concentration. Further test concentrations are prepared by dilution with emulsifier containing water.
Rice plants (Oryza sativa) are sprayed with a preparation of the active ingredient of the desired concentration and the plants are infested with the brown planthopper (Nilaparvata lugens).
After 4 days mortality in % is determined. 100% means all planthoppers have been killed and 0% means none of the planthoppers have been killed.

[6] = system: larvae of the southern green stink bug (Nezara viridula); test: Nezara viridula spray test; conditions: 96 h, after 4 days; for mortality at 500 g/ha: application rate 500 g/ha; for mortality at 100 g/ha: application rate 100 g/ha
Outline: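 Compound in acetone/dimethylformamide, diluted in water with 1000 ppm alkylarylpolyglycol ether emulsifier, sprayed onto barley plants carrying stink bug larvae. Mortality (%) scored after 4 days, 100% meaning all insects killed.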

[7] = system: green peach aphid (Myzus persicae); test: Myzus persicae spray test; conditions: 120 h, after 5 days; for mortality at 100 g/ha: application rate 100 g/ha; for mortality at 500 g/ha: application rate 500 g/ha
Outline: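 Chinese cabbage leaf disks carrying all instars of M. persicae sprayed with compound in acetone/DMF, diluted in water with 1000 ppm alkylarylpolyglycol ether emulsifier. Percent mortality scored after 5 days (100% = all aphids killed).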

[8] = system: green peach aphid (Myzus persicae); test: Myzus persicae oral test; conditions: 120 h, application rate 4 ppm, after 5 days
Outline: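 Acetone stock (1 pbw compound/100 pbw solvent) diluted in water; mixed with sugar-supplemented IPL41 medium; parafilm-sealed; mixed aphid population sucks through film; mortality % read at 5 d.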

[9] = system: fall armyworm larvae (Spodoptera frugiperda); test: Spodoptera frugiperda spray test; conditions: 168 h, read-out: activity (mortality)
Outline: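 Compound in acetone/DMF, diluted in water with 1000 ppm alkylarylpolyglycol ether emulsifier, sprayed on maize leaf sections. Dried leaves infested with fall armyworm larvae; % mortality after 7 days (100% = all killed, 0% = none).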

[10] = system: adult engorged female ticks (Rhipicephalus microplus); test: Rhipicephalus (Boophilus) microplus injection test; conditions: 168 h, egg deposition after 7 days, read-out: activity (efficacy: infertile eggs); for pest or weed control at 0.02 mg: application rate 20 μg/animal; for pest or weed control at 4 pg: application rate 4 pg/animal
Outline: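 Five adult engorged female ticks injected into the abdomen with 1 μL compound solution in DMSO, then held in a climate chamber. Fertile egg deposition assessed after 7 days, unclear eggs kept until hatching (about 42 days); efficacy 100% = all eggs infertile, 0% = all fertile.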

[11] = system: adult cat fleas (Ctenocephalides felis); test: Ctenocephalides felis in-vitro contact test, adult cat flea; conditions: application rate 5 μg/cm^2 (=500 g/ha), after 48 hours, read-out: activity (efficacy: fleas dead or moribund)
Outline: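 Acetone solutions of compound coated onto inner walls of glass tubes (900 ppm giving […]); after drying, 5-10 adult Ctenocephalides felis added and held at room temperature. At 48 h, fleas placed on a 45-50° C heating plate; those unable to climb away scored dead or moribund, expressed as % efficacy.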

[12] = system: southern root-knot nematode (Meloidogyne incognita); test: Meloidogyne incognita test; conditions: 336 h, application rate 20 ppm, after 14 days, read-out: nematicidal activity (based on gall formation)
Description: Meloidoyne incognita—Test
Solvent: 125.0 parts by weight of acetone
To produce a suitable preparation of active compound, 1 part by weight of active compound is mixed with the stated amount of solvent, and the concentrate is diluted with water to the desired concentration.
Vessels are filled with sand, a solution of the active ingredient, a suspension containing eggs and larvae of the southern root-knot nematode (Meloidogyne incognita) and salad seeds. The salad seeds germinate and the seedlings grow. Galls develop in the roots.
After 14 days the nematicidal activity is determined based on the percentage of gall formation. 100% means no galls were found and 0% means the number of galls found on the roots of the treated plants was equal to that in untreated control plants.

[13] = system: Musca domestica strain WHO-N; test: Musca domestica test (MUSCDO surface treatment & contact assay); conditions: 24 hours after contact, read-out: efficacy (mortality); for mortality at 4 mg/m2: surface concentration 4 mg/m^2, exposure 30 minutes; for mortality at 20 mg/m2: surface concentration 20 mg/m^2, exposure 30 minutes
Description: Musca domestica Test (MUSCDO Surface Treatment & Contact Assay)
(§1) Solvent: Aceton+2000 ppm rapeseed oil methyl ester (RME)
(§2) In order to produce a sufficient, active ingredient containing solution it is necessary to solve the test compound in the solvent-mix (acetone at 2 mg/ml/RME 2000 ppm). This solution is pipetted onto a glazed tile and after evaporation of the acetone, adult flies of the species Musca domestica strain WHO—N are placed onto the dried surface. The exposure time is 30 minutes. Mortality in percent (%) is determined 24 hours after contact of the insects to the treated surface. 100% mortality means that all tested insects are dead, whereas 0% means that no insect died.

[14] = system: adult brown dog ticks (Rhipicephalus sanguineus); test: Rhipicephalus sanguineus in-vitro contact test, adult brown dog ticks; conditions: after 48 hours, read-out: activity (efficacy: ticks dead or moribund); for pest or weed control at 5 µg/cm2, 500 g/ha: application rate 5 μg/cm^2 (=500 g/ha)
Outline: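 Acetone solution rolled onto tube walls, 2 h at 30 rpm; 900 ppm → 5 μg/cm^2. Solvent evaporated, 5-10 adults/tube, perforated lid, lying, RT. 48 h: heat plate 45-50° C ≤5 min; immotile/uncoordinated = dead/moribund. 100% = all dead/moribund.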

[15] = system: Anopheles funestus strain FUMOZ-R; test: Anopheles funestus test (ANPHFU surface treatment & contact assay); conditions: 24 hours after contact, read-out: efficacy (mortality)
Description: Anopheles funestus Test (ANPHFU Surface Treatment & Contact Assay)
as §1
as §2, with “mosquitoes” for “flies”, “Anopheles funestus” for “Musca domestica”, “FUMOZ-R (Hunt et al., Med. Vet. Entomol. 2005 September; 19(3): 271-275)” for “WHO—N”

SMILES | pest or weed control at 500 g/ha [1] | mortality at 100 ppm [2] | mortality at 20 mg/m2 [3] | pest or weed control at 100 g/ha [4] | pest or weed control at 500 g/ha [4] | mortality at 500 g/ha [5] | mortality at 500 g/ha [6] | mortality at 100 g/ha [7] | mortality at 4 ppm [8] | mortality at 100 g/ha [9] | pest or weed control at 0.02 mg [10] | pest or weed control at 5 µg/cm2 [11] | pest or weed control at 100 g/ha [1] | mortality at 100 g/ha [6] | pest or weed control at 4 pg [10] | pest or weed control at 20 ppm [12] | mortality at 4 mg/m2 [13] | mortality at 20 mg/m2 [13] | further results
CCc1nc([C@H](C)NC(=O)c2cc(Cl)cc(S(C)(=O)=O)c2)n(-c2ccc(C#N)cn2)n1 [I-3] | 100% | 100% | 80 to 100% | 100% | 100% | 100% | 100% | 100% | 100% | 100% | 100% | 90% |  |  |  |  |  |  | mortality at 500 g/ha [7]: 100%; mortality at 500 g/ha [9]: 100%
COc1nc([C@H](C)NC(=O)c2cc(Cl)cc(S(C)(=O)=O)c2)n(-c2ccc(C#N)cn2)n1 [I-7] | 100% | 100% |  | 100% | 100% | 90% | 100% | 100% | 100% | 100% | 100% | 100% | 100% | 100% | 100% |  |  |  | mortality at 500 g/ha [7]: 90%; mortality at 500 g/ha [9]: 100%
CCS(=O)(=O)c1cc(Cl)cc(C(=O)N[C@@H](C)c2nc(C(C)C)nn2-c2ccc(C#N)cn2)c1 [I-17] |  | 90% |  | 80% | 80% |  |  |  |  |  | 100% |  |  |  | 100% | 90% |  |  | 
C[C@H](NC(=O)c1cc(C2CC2)cc(S(=O)(=O)C2CC2)c1)c1nc(C2CC2)nn1-c1ccc(C#N)cn1 [I-56] |  |  |  | 100% | 100% |  |  |  |  | 100% |  |  |  |  |  | 100% |  |  | 
C[C@H](NC(=O)c1cc(C(F)(F)F)cc(S(C)(=O)=O)c1)c1nc(C2CC2)nn1-c1ccc(C#N)cn1 [I-64] |  |  | 80 to 100% |  |  |  |  | 100% | 100% | 100% |  |  | 100% | 100% |  |  | 80 to 100% | 80 to 100% | mortality at 100 g/ha [5]: 100%
C[C@H](NC(=O)c1cc(OC(F)(F)F)cc(S(C)(=O)=O)c1)c1nc(C2CC2)nn1-c1ccc(C#N)cn1 [I-81] |  |  |  |  |  | 100% | 100% | 90% | 100% | 100% |  |  | 100% | 100% |  |  | 80 to 100% | 80 to 100% | mortality at 4 mg/m2 [3]: 80 to 100%
C[C@H](NC(=O)c1cc(OC(F)(F)F)cc(S(C)(=O)=O)c1)c1nc(C2CC2)nn1-c1ncc(Cl)cn1 [I-82] |  |  | 80 to 100% |  |  | 90% | 100% | 90% | 100% | 100% |  |  | 100% | 100% |  |  | 80 to 100% | 80 to 100% | 
CC(NC(=O)c1cc(OC(F)(F)F)cc(C2CC2)c1)c1nc(I)nn1-c1ccc(C#N)cn1 (stereo not drawn) [I-83] |  |  |  | 100% | 100% |  |  |  |  | 100% |  |  | 100% |  |  | 100% |  |  | pest or weed control at 5 µg/cm2, 500 g/ha [14]: 80%
CC(NC(=O)c1cc(OC(F)(F)F)cc(C2CC2)c1)c1nc(Br)nn1-c1ccc(C#N)cn1 (stereo not drawn) [I-84] |  |  |  |  |  |  |  |  |  | 100% |  |  | 100% |  |  | 100% |  |  | 
C[C@H](NC(=O)c1cc(C#N)cc(S(C)(=O)=O)c1)c1ncnn1-c1ncccn1 [II-28] | 100% |  | 80 to 100% |  |  | 100% | 100% |  | 100% |  | 100% | 100% |  | 100% | 100% |  |  |  | mortality at 4 mg/m2 ([15]; surface concentration 4 mg/m^2, exposure 30 minutes): 80 to 100%; mortality at 20 mg/m2 ([15]; surface concentration 20 mg/m^2, exposure 30 minutes): 80 to 100%; mortality at 4 mg/m2 [3]: 80 to 100%; mortality at 100 g/ha [5]: 100%; pest or weed control at 100 g/ha ([14]; application rate 1 pg/cm^2 (=100 g/ha)): 100%; pest or weed control at 5 µg/cm2, 500 g/ha [14]: 100%
